Data set [1] is described as follows: Nephrotoxicity of prior-art compounds of EP 0 640 612 found by the Applicant. Format: in vivo. Conditions: no method given.
For data set [2] the following is noted: Journal of Cerebral Blood Flow and Metabolism, 1994, 14, 251-261; cited from earlier work.

For two compounds, Nephrotoxicity results are on record in US6596709B1, “6-sulphanoyl-3-quinolylphosphonic acid compounds” (Les Laboratoires Servier, priority 2000, dated 2003).

Like-named read-outs stand apart in the source and are kept apart here.

As for `O=c1[nH]c2cc(Cl)c(Cl)cc2cc1P(=O)(O)O` [(6,7-dichloro-2-oxo-1,2-dihydro-3-quinolyl)phosphonic acid], the Nephrotoxicity result in data set [1] was “serious problems of nephrotoxicity”.
For the compound `NS(=O)(=O)c1cccc2c3c(cc([N+](=O)[O-])c12)=NC(=O)C(=O)N=3` [NBQX, 6-nitro-7-sulphamoyl-benzo[f]quinoxaline-2,3-dione], in data set [2], the Nephrotoxicity result is recorded as “nephrotoxicity”.
